Data taken from ChEMBL document CHEMBL2034954, “Synthesis and antimycobacterial activity of novel 1,3-dimethylisocyanurate derivatives” (Eur J Med Chem, 2012).
Converted amounts (≈) assume the structure as drawn.

Columns and labels:
Assay type in all cases: functional
[1] = system: Mycobacterium tuberculosis; assay: Bacteriostatic activity against Mycobacterium tuberculosis H37Rv at 0.5 ug/mL assessed as growth index after 4 days by radiometric growth assay (reference value: 210 growth index)
[2] = system: Mycobacterium tuberculosis; assay: Bacteriostatic activity against Mycobacterium tuberculosis H37Rv at 1 ug/mL assessed as growth index after 7 days by radiometric growth assay (reference value: 210 growth index)
[3] = system: Mycobacterium tuberculosis; assay: Bacteriostatic activity against Mycobacterium tuberculosis H37Rv at 0.5 ug/mL assessed as growth index after 5 days by radiometric growth assay (reference value: 210 growth index)
[4] = system: Mycobacterium tuberculosis; assay: Bacteriostatic activity against Mycobacterium tuberculosis H37Rv at 1 ug/mL assessed as growth index after 5 days by radiometric growth assay (reference value: 210 growth index)
[5] = system: Mycobacterium tuberculosis; assay: Bacteriostatic activity against Mycobacterium tuberculosis H37Rv at 1 ug/mL assessed as growth index after 10 days by radiometric growth assay (reference value: 210 growth index)
[6] = system: Mycobacterium tuberculosis; assay: Bacteriostatic activity against Mycobacterium tuberculosis H37Rv at 1 ug/mL assessed as growth index after 4 days by radiometric growth assay (reference value: 210 growth index)
[7] = system: Mycobacterium tuberculosis; assay: Bacteriostatic activity against Mycobacterium tuberculosis H37Rv at 0.5 ug/mL assessed as growth index after 7 days by radiometric growth assay (reference value: 210 growth index)
[8] = system: Mycobacterium tuberculosis; assay: Antitubercular activity against Mycobacterium tuberculosis H37Rv after […] by radiometric growth assay
[9] = system: Mycobacterium tuberculosis; assay: Bacteriostatic activity against Mycobacterium tuberculosis H37Rv at 1 ug/mL assessed as growth index after 3 days by radiometric growth assay (reference value: 210 growth index)
[10] = system: Mycobacterium tuberculosis; assay: Bacteriostatic activity against Mycobacterium tuberculosis H37Rv at 0.5 ug/mL assessed as growth index after 3 days by radiometric growth assay (reference value: 210 growth index)
[11] = system: Mycobacterium tuberculosis; assay: Bacteriostatic activity against Mycobacterium tuberculosis H37Rv at 0.1 ug/mL assessed as growth index after 4 days by radiometric growth assay (reference value: 210 growth index)
[12] = system: Mycobacterium tuberculosis; assay: Bacteriostatic activity against Mycobacterium tuberculosis H37Rv at 0.1 ug/mL assessed as growth index after 3 days by radiometric growth assay (reference value: 210 growth index)
[13] = system: Mycobacterium tuberculosis; assay: Bacteriostatic activity against Mycobacterium tuberculosis H37Rv at 0.1 ug/mL assessed as growth index after 7 days by radiometric growth assay (reference value: 210 growth index)
[14] = system: Mycobacterium tuberculosis; assay: Bacteriostatic activity against Mycobacterium tuberculosis H37Rv at 0.1 ug/mL assessed as growth index after 5 days by radiometric growth assay (reference value: 210 growth index)

Compound: Cn1c(=O)n(C)c(=O)n(CCCCCS(=O)(=O)CC(=O)NN)c1=O
- Growth_index [1]: 33
- Growth_index [2]: 50
- Growth_index [3]: 50
- Growth_index [4]: 50
- Growth_index [5]: 50
- Growth_index [6]: 50
- Growth_index [7]: >90
- MIC [8]: 0.5 µg/mL (≈ 1.38 µM)
- Growth_index [9]: 14
- Growth_index [10]: 12

Compound: Cn1c(=O)n(C)c(=O)n(CCCS(=O)(=O)CC(=O)NN)c1=O
- Growth_index [1]: 30
- Growth_index [2]: 55
- Growth_index [3]: >90
- Growth_index [4]: 55
- Growth_index [5]: 55
- Growth_index [6]: 18
- MIC [8]: 1 µg/mL (≈ 2.98 µM)
- Growth_index [9]: 5
- Growth_index [10]: 15

Compound: Cn1c(=O)n(C)c(=O)n(CCCCS(=O)(=O)CC(N)=O)c1=O
- Growth_index [2]: 54
- Growth_index [4]: 54
- Growth_index [5]: 54
- Growth_index [6]: 35
- MIC [8]: 1 µg/mL (≈ 2.99 µM)
- Growth_index [9]: 20

Compound: Cn1c(=O)n(C)c(=O)n(CCCCS(=O)(=O)CC(=O)NN)c1=O
- Growth_index [2]: 73
- Growth_index [4]: 73
- Growth_index [5]: >90
- Growth_index [6]: 34
- MIC [8]: 1 µg/mL (≈ 2.86 µM)
- Growth_index [9]: 18

Compound: Cn1c(=O)n(C)c(=O)n(CCC[S+]([O-])CC(N)=O)c1=O (stereo not given)
- Growth_index [4]: >90
- Growth_index [6]: 41
- MIC [8]: 1 µg/mL (≈ 3.29 µM)
- Growth_index [9]: 7

Compound: Cn1c(=O)n(C)c(=O)n(CS(=O)(=O)CC(N)=O)c1=O
- MIC [8]: 1 µg/mL (≈ 3.42 µM)

Compound: Cn1c(=O)n(C)c(=O)n(CC(O)CS(=O)(=O)CC(=O)NN)c1=O (stereo not given)
- Growth_index [2]: 35
- Growth_index [4]: 30
- Growth_index [5]: 35
- Growth_index [6]: 25
- MIC [8]: 0.1 µg/mL (≈ 0.285 µM)
- Growth_index [9]: 1

Compound: Cn1c(=O)n(C)c(=O)n(CCCS(=O)(=O)CC(N)=O)c1=O
- Growth_index [2]: 39
- Growth_index [4]: 39
- Growth_index [5]: 39
- Growth_index [6]: 29
- MIC [8]: 1 µg/mL (≈ 3.12 µM)
- Growth_index [9]: 20

Compound: Cn1c(=O)n(C)c(=O)n(CCCCCCS(=O)(=O)CC(N)=O)c1=O
- Growth_index [2]: >90
- Growth_index [4]: 53
- Growth_index [6]: 23
- MIC [8]: 1 µg/mL (≈ 2.76 µM)
- Growth_index [9]: 5

Compound: Cn1c(=O)n(C)c(=O)n(CCCCCCCCCC[S+]([O-])CC(=O)NN)c1=O (stereo not given)
- Growth_index [2]: 22
- Growth_index [4]: 22
- Growth_index [5]: 22
- Growth_index [6]: 20
- MIC [8]: 0.5 µg/mL (≈ 1.2 µM)
- Growth_index [9]: 0

Compound: Cn1c(=O)n(C)c(=O)n(CC[S+]([O-])CC(=O)NN)c1=O (stereo not given)
- Growth_index [1]: >90
- Growth_index [2]: 50
- Growth_index [4]: 40
- Growth_index [5]: 50
- Growth_index [6]: 22
- MIC [8]: 0.5 µg/mL (≈ 1.64 µM)
- Growth_index [9]: 10
- Growth_index [10]: 30

Compound: C=CCn1c(=O)n(CC=C)c(=O)n(CC(O)CS(=O)(=O)CC(=O)NN)c1=O (stereo not given)
- MIC [8]: 0.1 µg/mL (≈ 0.248 µM)

Compound: Cn1c(=O)n(C)c(=O)n(CCC[S+]([O-])CC(=O)NN)c1=O (stereo not given)
- Growth_index [2]: 5
- Growth_index [4]: 5
- Growth_index [5]: 55
- Growth_index [6]: 5
- MIC [8]: 1 µg/mL (≈ 3.13 µM)
- Growth_index [9]: 5

Compound: Cn1c(=O)n(C)c(=O)n(CCCCCC[S+]([O-])CC(=O)NN)c1=O (stereo not given)
- Growth_index [2]: >90
- Growth_index [4]: 15
- Growth_index [6]: 15
- MIC [8]: 0.5 µg/mL (≈ 1.38 µM)
- Growth_index [9]: 10

Compound: Cn1c(=O)n(C)c(=O)n(CCCCCCS(=O)(=O)CC(=O)NN)c1=O
- Growth_index [11]: 27
- Growth_index [12]: 15
- MIC [8]: 0.1 µg/mL (≈ 0.265 µM)
- Growth_index [13]: >90
- Growth_index [14]: 31

Compound: Cn1c(=O)n(C)c(=O)n(CCCCCS(=O)(=O)CC(N)=O)c1=O
- Growth_index [2]: 23
- Growth_index [4]: 23
- Growth_index [5]: 23
- Growth_index [6]: 20
- MIC [8]: 1 µg/mL (≈ 2.87 µM)
- Growth_index [9]: 15
